This note sets out measurements from the supplement of paper PMC10331698.

± gives the standard deviation of the averaged measurements.

Assay in all cases: level (log10 ratio to DMSO vehicle control); higher = higher biomarker level / cell amount than vehicle control
Common to all, as to details: in DMSO

Compound in assay [1]: C=C(C)C(=O)OCCC(F)(F)C(F)(F)C(F)(F)C(F)(F)C(F)(F)C(F)(F)F [6:2 Fluorotelomer methacrylate]
The method, then: (§1)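 BioMAP Diversity Plus panel of 12 human primary cell co-culture systems (3C, 4H, LPS, SAg, BT, BF4T, BE3C, CASM3C, HDF3CGF, KF3CT, MyoF, Mphg). Compounds were added 1 h before stimulation and left for 24 h (MyoF 48 h; BT 72 h for soluble read-outs or 6 d for IgG). Biomarkers were read by ELISA, cytotoxicity by SRB, PBMC viability and proliferation by Alamar Blue. Each well value was divided by the mean of 8 DMSO control wells on the same plate and log10 transformed; duplicate blinded samples were tested at 4 concentrations.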

Compound in assay [2]: FC(F)(F)C(F)(F)C(F)(F)C(F)(F)C(F)(F)C(F)(F)CC1CO1 [3-(Perfluorohexyl)-1,2-epoxypropane]
The method, then: as §1

Compound in the next assay: NC(=O)C(F)(F)C(F)(F)C(F)(F)C(F)(F)F [Nonafluoropentanamide]
The procedure: as §1

Compound in assay [3]: NS(=O)(=O)C(F)(F)C(F)(F)C(F)(F)C(F)(F)C(F)(F)C(F)(F)F [Perfluorohexanesulfonamide]
The method, then: as §1

Compound in assay [4]: O=C(O)C(F)(F)C(F)(F)C(F)(F)C(F)(F)C(F)(F)C(F)(F)C(F)(F)C(F)(F)C(F)(F)C(F)F [11-H-Perfluoroundecanoic acid]
The procedure:
as §1

Compound in assay [5]: O=C(O)C=CC(F)(C(F)(F)F)C(F)(F)F [3-(Perfluoroisopropyl)-2-propenoic acid]
The method, then:
as §1

Compound in assay [6]: O=S(=O)(F)C(F)(F)C(F)(F)C(F)(F)C(F)(F)C(F)(F)C(F)(F)C(F)(F)C(F)(F)F [Perfluorooctanesulfonyl fluoride]
The procedure: as §1

As to 3C:CXCL9/MIG, the “level (log10)” value was -0.001 ± 0.0014 in assay [1] (6700 nM); 0.0025 ± 0.012 in assay [1] (20000 nM); 0.0105 ± 0.023 in assay [1] (60000 nM); 0.0065 ± 0.0064 in assay [2] (6700 nM); -0.011 ± 0.0071 in assay [2] (20000 nM); 0.013 ± 0.0099 in assay [2] (60000 nM). Besides, the “level (log10)” value in the assay with Nonafluoropentanamide (6700 nM) was -0.0005 ± 0.0021; with Nonafluoropentanamide (20000 nM), -0.0005 ± 0.021; with Nonafluoropentanamide (60000 nM) it was 0.0065 ± 0.012; in assay [3] (6700 nM) it was -0.0165 ± 0.005; in assay [3] (20000 nM) it was -0.0055 ± 0.0021; in assay [3] (60000 nM) it was 0.009 ± 0.0071. For the same test system, the “level (log10)” value in assay [4] (6700 nM) was -0.005 ± 0.0085; in assay [4] (20000 nM), -0.002; in assay [5] (6700 nM), 0.004 ± 0.0071; in assay [5] (20000 nM) it was -0.0105 ± 0.0064; in assay [5] (60000 nM), 0.0045 ± 0.016; in assay [6] (6700 nM), -0.008 ± 0.0099. The results for the “level (log10)” value in assay [6] (20000 nM) and in assay [6] (60000 nM) were -0.0015 ± 0.00071 and 0.0055 ± 0.012, respectively.
As for 3C:HLA-DR, the “level (log10)” value in assay [1] (6700 nM) is -0.0015 ± 0.0092; in assay [1] (20000 nM) it was -0.007 ± 0.0071; in assay [1] (60000 nM) it was -0.005 ± 0.0099; in assay [2] (6700 nM) it was -0.0005 ± 0.0035; in assay [2] (20000 nM) it was -0.006 ± 0.016; in assay [2] (60000 nM) it was 0.0025 ± 0.016. In addition, the “level (log10)” value in the assay with Nonafluoropentanamide (6700 nM) is -0.0095 ± 0.054; with Nonafluoropentanamide (20000 nM), -0.007 ± 0.0099; with Nonafluoropentanamide (60000 nM) it was 0.003 ± 0.0014; in assay [3] (6700 nM), -0.017 ± 0.0014; in assay [3] (20000 nM), -0.0555 ± 0.00071; in assay [3] (60000 nM), -0.125 ± 0.011. Also, the “level (log10)” value in assay [4] (6700 nM) is 0.0055 ± 0.039; in assay [4] (20000 nM) it was -0.001 ± 0.062; in assay [5] (6700 nM), 0.0095 ± 0.005; in assay [5] (20000 nM) it was -0.0135 ± 0.022; in assay [5] (60000 nM), -0.003 ± 0.028; in assay [6] (6700 nM), -0.0045 ± 0.00071. Further, the “level (log10)” value in assay [6] (20000 nM) is -0.004 ± 0.0028; in assay [6] (60000 nM) it was -0.003 ± 0.011.
Consider 3C:Proliferation, for which the “level (log10)” value in assay [1] (6700 nM) is 0.0005 ± 0.028; in assay [1] (20000 nM) it was -0.003 ± 0.089; in assay [1] (60000 nM), -0.013 ± 0.0085; in assay [2] (6700 nM), -0.013 ± 0.0042; in assay [2] (20000 nM), -0.0055 ± 0.054; in assay [2] (60000 nM), -0.0375 ± 0.035. Besides, the “level (log10)” value in the assay with Nonafluoropentanamide (6700 nM) was 0.028 ± 0.018; with Nonafluoropentanamide (20000 nM) it was 0.016 ± 0.03; in the assay with Nonafluoropentanamide (60000 nM) it was -0.0145 ± 0.021; in assay [3] (6700 nM), -0.0605 ± 0.011; in assay [3] (20000 nM), -0.0635 ± 0.069; in assay [3] (60000 nM), -0.334 ± 0.024. For the same test system, the “level (log10)” value in assay [4] (6700 nM) is -0.0185 ± 0.074; in assay [4] (20000 nM), 0.0405 ± 0.016; in assay [5] (6700 nM), -0.0185 ± 0.09; in assay [5] (20000 nM) it was -0.002 ± 0.037; in assay [5] (60000 nM) it was -0.0145 ± 0.049; in assay [6] (6700 nM), 0.0125 ± 0.0092. For the same test system, the “level (log10)” value in assay [6] (20000 nM) was found to be 0.0095 ± 0.016; in assay [6] (60000 nM), 0.0055 ± 0.046.
With 3C:SRB, the “level (log10)” value in assay [1] (6700 nM) was -0.004 ± 0.014; in assay [1] (20000 nM), -0.0025 ± 0.0078; in assay [1] (60000 nM), 0 ± 0.018; in assay [2] (6700 nM), 0.009 ± 0.0042; in assay [2] (20000 nM), 0.014 ± 0.0085; in assay [2] (60000 nM) it was 0.018 ± 0.0099. Besides, the “level (log10)” value with Nonafluoropentanamide (6700 nM) is -0.002 ± 0.0042; with Nonafluoropentanamide (20000 nM), 0.0005 ± 0.0035; with Nonafluoropentanamide (60000 nM), -0.011; in assay [3] (6700 nM), -0.01 ± 0.011; in assay [3] (20000 nM), -0.0125 ± 0.0078; in assay [3] (60000 nM), -0.139 ± 0.014. Further, the “level (log10)” value in assay [4] (6700 nM) was 0.0095 ± 0.012; in assay [4] (20000 nM), 0.01 ± 0.025; in assay [5] (6700 nM) it was 0.0035 ± 0.0078; in assay [5] (20000 nM) it was 0.0055 ± 0.019; in assay [5] (60000 nM) it was 0.0155 ± 0.015; in assay [6] (6700 nM), 0.0035 ± 0.00071. Moreover, the “level (log10)” value in assay [6] (20000 nM) was -0.0035 ± 0.0078; in assay [6] (60000 nM) it was -0.003 ± 0.013.
On to 4H:CCL2/MCP-1, for which the “level (log10)” value in assay [1] (6700 nM) was -0.009 ± 0.0014; in assay [1] (20000 nM), 0.007 ± 0.0085; in assay [1] (60000 nM), -0.006 ± 0.0057; in assay [2] (6700 nM) it was 0.03 ± 0.0099; in assay [2] (20000 nM) it was -0.0175 ± 0.0064; in assay [2] (60000 nM) it was 0.0125 ± 0.019. For the same test system, the “level (log10)” value in the assay with Nonafluoropentanamide (6700 nM) was -0.024 ± 0.017; with Nonafluoropentanamide (20000 nM), -0.017; with Nonafluoropentanamide (60000 nM) it was -0.004 ± 0.013; in assay [3] (6700 nM), 0.002 ± 0.027; in assay [3] (20000 nM), -0.033 ± 0.0028; in assay [3] (60000 nM) it was -0.136 ± 0.031. The “level (log10)” value is -0.0625 ± 0.021 in assay [4] (6700 nM); -0.0615 ± 0.013 in assay [4] (20000 nM); 0.008 ± 0.025 in assay [5] (6700 nM); -0.0105 ± 0.022 in assay [5] (20000 nM); 0.0005 ± 0.0064 in assay [5] (60000 nM); 0 in assay [6] (6700 nM). In addition, the “level (log10)” value was -0.0195 ± 0.0035 in assay [6] (20000 nM) and -0.0005 ± 0.023 in assay [6] (60000 nM).
For the test system 4H:CCL26/Eotaxin-3, the “level (log10)” value in assay [1] (6700 nM) was 0.016; in assay [1] (20000 nM) it was 0.006 ± 0.048; in assay [1] (60000 nM), -0.009 ± 0.05; in assay [2] (6700 nM), -0.001 ± 0.011; in assay [2] (20000 nM), -0.001 ± 0.0028; in assay [2] (60000 nM), 0.005 ± 0.0057. Besides, the “level (log10)” value in the assay with Nonafluoropentanamide (6700 nM) was -0.0005 ± 0.0035; in the assay with Nonafluoropentanamide (20000 nM) it was 0.0195 ± 0.00071; in the assay with Nonafluoropentanamide (60000 nM), 0.066 ± 0.017; in assay [3] (6700 nM), -0.0015 ± 0.005; in assay [3] (20000 nM), -0.0285 ± 0.028; in assay [3] (60000 nM), -0.1 ± 0.0071. The “level (log10)” value in assay [4] (6700 nM) is -0.0435 ± 0.012; in assay [4] (20000 nM), -0.0535 ± 0.037; in assay [5] (6700 nM) it was -0.011 ± 0.0014; in assay [5] (20000 nM), -0.011 ± 0.0014; in assay [5] (60000 nM), 0.016 ± 0.0085; in assay [6] (6700 nM), 0.001 ± 0.0028. The “level (log10)” value is -0.0025 ± 0.00071 in assay [6] (20000 nM) and 0.0005 ± 0.005 in assay [6] (60000 nM).
Turning to 4H:CD62P/P-selectin, the “level (log10)” value in assay [1] (6700 nM) was -0.033 ± 0.072; in assay [1] (20000 nM), -0.0065 ± 0.044; in assay [1] (60000 nM), -0.01 ± 0.0014; in assay [2] (6700 nM), 0.0055 ± 0.016; in assay [2] (20000 nM), -0.0015 ± 0.019; in assay [2] (60000 nM), 0.013 ± 0.017. For the same test system, the “level (log10)” value with Nonafluoropentanamide (6700 nM) is -0.0135 ± 0.043; with Nonafluoropentanamide (20000 nM), -0.0075 ± 0.029; in the assay with Nonafluoropentanamide (60000 nM) it was 0.0075 ± 0.05; in assay [3] (6700 nM), -0.006 ± 0.014; in assay [3] (20000 nM), 0.055 ± 0.062; in assay [3] (60000 nM) it was -0.0045 ± 0.012. In addition, the “level (log10)” value in assay [4] (6700 nM) was 0.0165 ± 0.0092; in assay [4] (20000 nM) it was 0.035 ± 0.031; in assay [5] (6700 nM) it was -0.001 ± 0.02; in assay [5] (20000 nM), -0.0105 ± 0.012; in assay [5] (60000 nM), 0.023 ± 0.0085; in assay [6] (6700 nM), 0.061 ± 0.021. Also, the “level (log10)” value is -0.034 ± 0.079 in assay [6] (20000 nM) and -0.0275 ± 0.0064 in assay [6] (60000 nM).
